Test results reported in PubChem BioAssay (NCI).
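These data come from cells grown in 96-well plates and exposed to compound for 48 hours at five concentrations. GI50 is the concentration that inhibits growth by half. TGI is the concentration that stops growth completely.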

Tests used:
Experiment in all cases: DTP human tumour cell line panel, 48 h
UO-31 renal = system: UO-31 renal
M14 melanoma = system: M14 melanoma
CCRF-CEM leukemia = system: CCRF-CEM leukemia
SK-MEL-5 melanoma = system: SK-MEL-5 melanoma
OVCAR-8 ovarian = system: OVCAR-8 ovarian
NCI-H460 lung = system: NCI-H460 lung
MCF7 breast = system: MCF7 breast
ACHN renal = system: ACHN renal
IGROV1 ovarian = system: IGROV1 ovarian
K-562 leukemia = system: K-562 leukemia
RPMI-8226 leukemia = system: RPMI-8226 leukemia
NCI-H522 lung = system: NCI-H522 lung
DU-145 prostate = system: DU-145 prostate
SF-268 CNS = system: SF-268 CNS
HS 578T breast = system: HS 578T breast
U251 CNS = system: U251 CNS
A549 NSCLC = system: A549 NSCLC
SR leukemia = system: SR leukemia
MDA-MB-435 = system: MDA-MB-435
OVCAR-4 ovarian = system: OVCAR-4 ovarian
MDA-MB-231 breast = system: MDA-MB-231 breast
A498 renal = system: A498 renal
UACC-257 melanoma = system: UACC-257 melanoma
SF-295 CNS = system: SF-295 CNS
NCI-H23 lung = system: NCI-H23 lung
MALME-3M melanoma = system: MALME-3M melanoma
LOX IMVI melanoma = system: LOX IMVI melanoma
OVCAR-5 ovarian = system: OVCAR-5 ovarian
HCC-2998 colon = system: HCC-2998 colon
SNB-75 CNS = system: SNB-75 CNS
HT29 colon = system: HT29 colon
EKVX NSCLC = system: EKVX NSCLC
SK-MEL-2 melanoma = system: SK-MEL-2 melanoma
BT-549 breast = system: BT-549 breast
SNB-19 CNS = system: SNB-19 CNS
KM12 colon = system: KM12 colon
MOLT-4 leukemia = system: MOLT-4 leukemia
TK-10 renal = system: TK-10 renal
SW-620 colon = system: SW-620 colon
HOP-62 NSCLC = system: HOP-62 NSCLC
HCT-116 colon = system: HCT-116 colon
RXF 393 renal = system: RXF 393 renal
SN12C renal = system: SN12C renal
786-0 renal = system: 786-0 renal
SF-539 CNS = system: SF-539 CNS
CAKI-1 renal = system: CAKI-1 renal
NCI-H226 lung = system: NCI-H226 lung
NCI/ADR-RES ovarian = system: NCI/ADR-RES ovarian
UACC-62 melanoma = system: UACC-62 melanoma
HOP-92 NSCLC = system: HOP-92 NSCLC
HCT-15 colon = system: HCT-15 colon
SK-MEL-28 melanoma = system: SK-MEL-28 melanoma
T-47D breast = system: T-47D breast

## COc1cc(/C=N/n2cnc3oc(-c4ccccc4)cc3c2=N)cc(CN2CCCCC2)c1O
UO-31 renal
  GI50: 1390 nM
  TGI: 2920 nM
M14 melanoma
  GI50: 1560 nM
  TGI: 3180 nM
CCRF-CEM leukemia
  GI50: 324 nM
  TGI: 1250 nM
SK-MEL-5 melanoma
  GI50: 1760 nM
  TGI: 3170 nM
OVCAR-8 ovarian
  GI50: 1950 nM
  TGI: 4700 nM
NCI-H460 lung
  GI50: 1430 nM
  TGI: 3080 nM
MCF7 breast
  GI50: 512 nM
  TGI: 1990 nM
ACHN renal
  GI50: 1360 nM
  TGI: 2670 nM
IGROV1 ovarian
  GI50: 1690 nM
  TGI: 3350 nM
K-562 leukemia
  GI50: 201 nM
  TGI: 458 nM
RPMI-8226 leukemia
  GI50: 2130 nM
  TGI: 5380 nM
NCI-H522 lung
  GI50: 2010 nM
  TGI: 4510 nM
DU-145 prostate
  GI50: 1800 nM
  TGI: 3320 nM
SF-268 CNS
  GI50: 1970 nM
  TGI: 4030 nM
HS 578T breast
  GI50: 1830 nM
  TGI: 4360 nM
U251 CNS
  GI50: 1830 nM
  TGI: 3600 nM
A549 NSCLC
  GI50: 1700 nM
  TGI: 3450 nM
SR leukemia
  GI50: 247 nM
  TGI: 687 nM
MDA-MB-435
  GI50: 1640 nM
  TGI: 3060 nM
OVCAR-4 ovarian
  GI50: 1750 nM
  TGI: 3670 nM
MDA-MB-231 breast
  GI50: 1640 nM
  TGI: 3350 nM
A498 renal
  GI50: 1730 nM
  TGI: 3280 nM
UACC-257 melanoma
  GI50: 1930 nM
  TGI: 3880 nM
SF-295 CNS
  GI50: 1830 nM
  TGI: 3390 nM
NCI-H23 lung
  GI50: 1810 nM
  TGI: 3570 nM
MALME-3M melanoma
  GI50: 1790 nM
  TGI: 3720 nM
LOX IMVI melanoma
  GI50: 444 nM
  TGI: 1520 nM
OVCAR-5 ovarian
  GI50: 1890 nM
  TGI: 3460 nM
HCC-2998 colon
  GI50: 1850 nM
  TGI: 3340 nM
SNB-75 CNS
  GI50: 1390 nM
  TGI: 2790 nM
HT29 colon
  GI50: 489 nM
  TGI: 1790 nM
EKVX NSCLC
  GI50: 1890 nM
  TGI: 3680 nM
SK-MEL-2 melanoma
  GI50: 1790 nM
  TGI: 3660 nM
BT-549 breast
  GI50: 2120 nM
  TGI: 4190 nM
SNB-19 CNS
  GI50: 1980 nM
  TGI: 3730 nM
KM12 colon
  GI50: 1810 nM
  TGI: 3390 nM
MOLT-4 leukemia
  GI50: 2250 nM
  TGI: 6570 nM
TK-10 renal
  GI50: 1910 nM
  TGI: 3460 nM
SW-620 colon
  GI50: 1910 nM
  TGI: 3760 nM
HOP-62 NSCLC
  GI50: 1790 nM
  TGI: 3770 nM
HCT-116 colon
  GI50: 310 nM
  TGI: 959 nM
RXF 393 renal
  GI50: 1410 nM
  TGI: 3150 nM
SN12C renal
  GI50: 1550 nM
  TGI: 3210 nM
786-0 renal
  GI50: 1480 nM
  TGI: 3030 nM
SF-539 CNS
  GI50: 1750 nM
  TGI: 3330 nM
CAKI-1 renal
  GI50: 1430 nM
  TGI: 2770 nM
NCI-H226 lung
  GI50: 2010 nM
  TGI: 4550 nM
NCI/ADR-RES ovarian
  GI50: 2140 nM
  TGI: 4910 nM
UACC-62 melanoma
  GI50: 1830 nM
  TGI: 3350 nM
HOP-92 NSCLC
  GI50: 1480 nM
  TGI: 3280 nM
HCT-15 colon
  GI50: 1770 nM
  TGI: 3490 nM
SK-MEL-28 melanoma
  GI50: 1630 nM
  TGI: 3250 nM
T-47D breast
  GI50: 2040 nM
  TGI: 4620 nM
